Laboratory results from patent US20230242616A1, “CHEMOKINE-SELECTIVE CXCR4 ECTODOMAIN-DERIVED (POLY)PEPTIDE” (Ludwig-Maximilians-Universität München, priority 2020, published 2023).
Several values for one entry are separate records, joined by “and”; a condition that tells them apart may be missing. Equal values may be shown once.

Experiments:
[1] = test system: primary mouse spleen B lymphocytes; assay: Transwell chemotaxis of B cells elicited by MIF; type: cell-based; details: 16 nM MIF
Method: Chemotaxis analysis of murine B cells. A Transwell-based assay was used as described previously^34. Briefly, splenic B cells were isolated by negative depletion using a Pan B Cell Isolation Kit (Miltenyi Biotec. Bergisch Gladbach, Germany). Purity of the cells was between 95 and 99%. […] Chemotaxis was followed for 4 h at 37° C. in a humidified atmosphere of 5% CO2. Migrated cells were counted by flow cytometry using CountBright™ Absolute Counting Beads (Molecular Probes-Invitrogen).

[2] = test system: primary human monocyte-derived macrophages; assay: Dil-LDL uptake / foam cell formation, MIF-mediated; type: cell-based
Method: Dil-LDL uptake/foam cell formation. […] After washing with imaging solution (MEM without phenol red containing 30 mM HEPES, 0.5 g/L NaHCO3, pH 7.4, and 0.2% BSA), cells were exposed to 50 μg/mL 1,1′-dioctadecyl-3,3,3′3′-tetra-methylindocarbocyanine-labeled LDL (Dil-LDL) for 30 min at 4° C. followed by incubation at 37° C. for 20 min. Cells were washed with ice-cold imaging solution (pH 3.5), fixed, and counter-stained with Hoechst 33258.

[3] = test system: carotid arteries of Apoe−/− mice; assay: Leukocyte adhesion in atherogenic carotid arteries ex vivo under flow; set-up: species or system mouse; details: injection three days before vessel preparation; physiological flow
Method: Fluos-msR4M-L1 staining and monocyte adhesion in atherosclerotic carotid arteries by multiphoton microscopy. Monocyte adhesion experiments in atherosclerotic carotid arteries under physiological flow conditions ex vivo have been established^14, 70. Seven-week-old Apoe^−/− mice were fed a Western-type HFD (0.2% cholesterol) for 12 weeks. […] On day 3, arteries were prepared and mounted into an arteriograph chamber as described^70. […] Mouse leukocytes isolated from the bone marrow of msR4M-L1- or vehicle-treated atherogenic Apoe^−/− mice were stained with fluorescent Green CMFDA or Red CMPTX (Thermo Fisher Scientific). […] The red- and green-stained cell pools were mixed at a 1:1 ratio and 3×10^6 cells in 6 mL perfused into the artery of msR4M-L1- or vehicle-treated mice, respectively. Arteries were scanned by MPM using a multispectral TCS SP8 DIVE instrument with filter-free 4TUNE NDD detection module (Leica) and the number of adherent and transmigrated leukocytes determined by scanning multi-photon excitation. Vessel structure (and plaques) were visualized by second harmonic generation (SHG).

Apoe−/− mice on HFD = assay: In-vivo model of early atherosclerosis
Method: Seven-eight-week-old female Apoe^−/− mice were randomly divided into two groups of 11-12 mice each and both groups put on a Western-type HFD (0.2% cholesterol) for 4.5 weeks. Mice develop early-to-intermediate atherosclerotic lesions in this model^39. […] At the end of the experiment, mice were sacrificed, blood collected by cardiac puncture and saved for blood cell and lipid measurements and mice transcardially perfused with saline. Hearts, proximal aortas and carotid arteries were prepared and fixed for plaque morphometry and lesion analysis.
Quantification of plaques and vessel morphometry (oil red O and H&E staining). Cut heart tissue containing aortic root were embedded in optimum cutting temperature (OCT) (Sakura Finetek, Osaka, Japan) and frozen at −80° C. Eight-μm sections were prepared for oil-red O (ORO) staining and plaque immune cell analysis. The accumulation of macrophages in aortic root lesions was determined by an anti-MAC-2 antibody followed by Cy5-conjugated secondary antibody. Nuclei were visualized with DAPI. The aortic arch was cut, fixed in 4% paraformaldehyde (PFA) and embedded in paraffin. Ten-μm sections containing the three branches (brachiocephalic, left common carotid, and left subclavian artery) were prepared and stained with hematoxylin/eosin (HE) for vessel morphometry. Images were captured with a Leica DMi8 microscope and quantified using Image J.

[4] = test system: human monocyte-derived macrophages; details: read-out: IC50 of MIF-triggered Dil-oxLDL uptake; lower threshold of effect size roughly 50%

Compound: CC[C@H](C)[C@H](NC(=O)[C@H](Cc1ccc(O)cc1)NC(=O)[C@H](CCCNC(=N)N)NC(=O)[C@H](CC(=O)O)NC(=O)CCCCCCCCCCCNC(=O)CCCCCNC(=O)[C@H](CCCCN)NC(=O)[C@H](CS)NC(=O)[C@H](CC(C)C)NC(=O)[C@H](Cc1ccccc1)NC(=O)[C@H](CC(N)=O)NC(=O)CNC(=O)[C@H](Cc1ccccc1)NC(=O)[C@H](Cc1ccc(O)cc1)NC(=O)[C@H](Cc1c[nH]c2ccccc12)NC(=O)[C@H](CC(N)=O)NC(=O)[C@H](C)NC(=O)[C@@H](NC(=O)[C@H](C)NC(=O)[C@@H](N)CC(=O)O)C(C)C)C(=O)N[C@@H](CS)C(=O)N[C@@H](CC(=O)O)C(=O)N[C@@H](CCCNC(=N)N)C(=O)N[C@@H](Cc1ccccc1)C(=O)N[C@@H](Cc1ccc(O)cc1)C(=O)N1CCC[C@H]1C(=O)N[C@@H](CC(N)=O)C(=O)N[C@@H](CC(=O)O)C(=O)N[C@@H](CC(C)C)C(=O)N[C@@H](Cc1c[nH]c2ccccc12)C(=O)N[C@H](C(N)=O)C(C)C [msR4M-L1]
- inhibition of MIF-mediated B-cell chemotaxis [1]: fully blocked
- molar excess over MIF at maximal inhibition [1]: 5 -fold molar excess
- IC50 ([1]; read-out: IC50 of MIF-mediated B-lymphocyte chemotaxis): 10 nM and 10 to 15 nM
- effect on MIF-mediated Dil-LDL uptake ([2]; 80 nM MIF): dose-dependently inhibited
- inhibitory capacity compared with established MIF inhibitors ([2]; Dil-LDL uptake): slightly better than that of ISO-1, but lower than that or NIH/IIID.9
- number of adhering leukocytes [3]: significantly reduced the number of adhering leukocytes
- toxicity or side effects (Apoe−/− mice on HFD; 50 μg i.p. for 4.5 weeks): No toxicity or side effects were noted
- number of lesional macrophages (MAC-2 staining) (Apoe−/− mice on HFD; 50 μg per mouse i.p., HFD 4.5 weeks): significantly decreased number of lesional macrophages
- atherosclerotic lesion size in aortic arch and root (Apoe−/− mice on HFD; 50 μg per mouse i.p., HFD 4.5 weeks, versus vehicle): significantly decreased
- IC50 [4]: ~100 nM
